Assay results from US12274696B2, “Methods of administering nalbuphine” (Trevi Therapeutics, Inc., priority 2020, dated 2025).

Assays:
[1] = cohorts 1-4
From the text: (§1) Healthy subjects receive a single dose of drug at the highest dose studied in the liver-impaired subjects in order to make relative comparison to the PK aspects of Nalbuphine extended release (ER).
(§2) Cohort 1 consists of subjects with impaired hepatic function divided into three groups with some subjects in each of the mild Child-Pugh A category (Group 1), the moderate Child-Pugh B category (Group 2), and the severe Child-Pugh category C (Group 3). Cohort 2-4 consists of subjects with impaired hepatic function divided into two groups with some subjects in each of the mild Child-Pugh A category (Group 1), and the moderate Child-Pugh B category (Group 2).
(§3) Dosing: Subjects receive a single ascending dose, under fasting condition, at the following dose levels:
(§4) Each of the cohorts is dosed sequentially starting with the lowest dose. Subjects with mild or moderate hepatic impairment enrolled in Cohort 1 are optionally enrolled in Cohorts 2, 3, and 4. For each dose cohort, enrollment of subjects with mild or moderate hepatic impairment is done in parallel. An evaluation of safety and tolerability of the combined mild and moderate hepatic impairment subject data is done at each dose level before proceeding to the next dose level.
(§5) Blood: Blood from the patients of each cohort is collected in K2EDTA tubes. The plasma fractions are separated by centrifugation and stored frozen until analysis. Blood samples are collected at the following time points: 0 h (prior to the dose), 1.5, 3, 5, 7, 9, 12, 24, 36, 48, and 72 h after the dose.

clinical = details: human, plasma, oral
From the text: as §1, §2, §3, §4, §5

With `Cl.Oc1ccc2c3c1OC1[C@@H](O)CC[C@@]4(O)[C@@H](C2)N(CC2CCC2)CC[C@]314` (stereo partly drawn) [nalbuphine, 17-(cyclobutylmethyl)-4,5α-epoxymorphinian-3, 6α, 14-triol, hydrochloride] the Half-life across cohorts [1] was “similar”, the AUC(0-t) (clinical; 27 mg, AUC0-t Mean, 27 mg single dose, Cohort 1, mild hepatic impairment (Child Pugh A)) was 48.9 ng·h/mL and the AUC(0-t) (clinical; 27 mg, AUC0-t Mean, 27 mg single dose, Cohort 1, moderate hepatic impairment (Child Pugh B)) was 244 ng·h/mL. For the same compound, the AUC(0-t) (clinical; 27 mg, AUC0-t Mean, 27 mg single dose, Cohort 1, severe hepatic impairment (Child Pugh C)) was 489 ng·h/mL, the Cmax (clinical; 27 mg, Cmax Mean, 27 mg single dose, Cohort 1, mild hepatic impairment (Child Pugh A)) was 3.56 ng/mL and the Cmax (clinical; 27 mg, Cmax Mean, 27 mg single dose, Cohort 1, moderate hepatic impairment (Child Pugh B)) was 14.6 ng/mL. The Cmax (clinical; 27 mg, Cmax Mean, 27 mg single dose, Cohort 1, severe hepatic impairment (Child Pugh C)) was 28.3 ng/mL, the AUC(0-t) (clinical; 162 mg, mean AUC0-t, 162 mg single dose, Cohort 4, mild hepatic impairment (Child Pugh A)) was 375 ng·h/mL and the AUC(0-t) (clinical; 162 mg, mean AUC0-t, 162 mg single dose, Cohort 4, moderate hepatic impairment (Child Pugh B)) was 1230 ng·h/mL. The Cmax (clinical; 162 mg, mean Cmax, 162 mg single dose, Cohort 4, mild hepatic impairment (Child Pugh A)) was 19.9 ng/mL and the Cmax (clinical; 162 mg, mean Cmax, 162 mg single dose, Cohort 4, moderate hepatic impairment (Child Pugh B)) was 65.4 ng/mL.
